# What was measured:
# [1] = test system: U87 cell line; test: cytotoxicity in glioblastoma cells, dose response, cytotoxicity control for Wee1 degradation inhibitor project, cell-based, luminescence, U87, U87 vII (AID 504935); conditions: luminescence viability
# [2] = test system: U87 vII cell line; test: as above; conditions: luminescence viability
structure (smiles),measurement,setting,value
O=[N+]([O-])c1cccc2[nH]c(CNc3nc(N4CCOCC4)nc4c3ncn4-c3ccsc3)nc12,IC50,[1],95.1 nM
same,IC50,[2],23.4 nM

# — PubChem BioAssay AID504935 (The Scripps Research Institute Molecular Screening Center, 2011)
